From patent US20100304380A1, “Quantitative DNA Methylation Imaging of Cells and Tissues” (EPILUMINA, INC., priority 2009, published 2010)

Key:
[1] = system: AtT20 mouse pituitary tumor cells; experiment: Quantitative DNA Methylation (MeC) Imaging of nuclear MeC/DAPI colocalization; assay type: cell-based; conditions: treated AtT20 cells in culture versus untreated cells (tight colocalization); FIG. 3
Text: Approximately 55% of the human genome is comprised of heterochromatin. […] Therefore, we used the genome and its 3D organization as an indicator to evaluate the effect of demethylating drugs on cancer cells in situ. Our approach provides a statistical measurement on the two classes of DNAs (MeC and DAPI-positive gDNA) as nuclear targets. The algorithm compares the relative distribution of signals derived from these two targets (from two color-channels), projects them onto scatter plots (FIGS. 3 and 4), and then measures the degree of similarities between the plotted signal distributions of cells within a population. This method offers a way to evaluate cellular response to external factors such as drugs and changes in culture conditions via dissimilarity assessment of relevant cellular structures. […] This method considers the strength of statistical evaluation of intra-nuclear MeC/DAPI patterns, especially valuable when cell population homogeneity is difficult to be assessed due to lack of standardized reference and sample size.
FIG. 1 is a workflow of Quantitative DNA Methylation (MeC) Imaging comprised of three steps: (1) immunofluorescence with antibodies against MeC (and against a cell-type or cell-characteristic marker) and DNA counterstaining with DAPI, (2) high-resolution fluorescence microscopy to collect 2D optical sections of the cells, and (3) 3D fluorescence image analysis. […]

[2] = system: TtT-GF mouse folliculostellate pituitary cell nuclei; experiment: Quantitative DNA Methylation Imaging of nuclear MeC/DAPI colocalization; assay type: cell-based; conditions: 100 nM, 24 hours, TtT-GF cells in culture; selected cells 1-5; FIG. 4
Text: Therefore, we used the genome and its 3D organization as an indicator to evaluate the effect of demethylating drugs on cancer cells in situ. Our approach provides a statistical measurement on the two classes of DNAs (MeC and DAPI-positive gDNA) as nuclear targets. The algorithm compares the relative distribution of signals derived from these two targets (from two color-channels), projects them onto scatter plots (FIGS. 3 and 4), and then measures the degree of similarities between the plotted signal distributions of cells within a population. This method offers a way to evaluate cellular response to external factors such as drugs and changes in culture conditions via dissimilarity assessment of relevant cellular structures. […] This method considers the strength of statistical evaluation of intra-nuclear MeC/DAPI patterns, especially valuable when cell population homogeneity is difficult to be assessed due to lack of standardized reference and sample size. FIG. 1 is a workflow of Quantitative DNA Methylation (MeC) Imaging comprised of three steps: (1) immunofluorescence with antibodies against MeC (and against a cell-type or cell-characteristic marker) and DNA counterstaining with DAPI, (2) high-resolution fluorescence microscopy to collect 2D optical sections of the cells, and (3) 3D fluorescence image analysis. […]

SMILES | change of nuclear DNA methylation patterns (MeC vs heterochromatin/DAPI colocalization) [1] | response (demethylation) of the cell population, MeC vs heterochromatin/DAPI colocalization [2]
Nc1ncn([C@@H]2O[C@H](CO)[C@@H](O)[C@H]2O)c(=O)n1 [5-azacytidine] | large foci that are uniquely comprised of three types of signals/genomic loci | –
C[C@@H](O)[C@@H]1NC(=O)[C@H](CCCCN)NC(=O)[C@@H](Cc2c[nH]c3ccccc23)NC(=O)[C@H](Cc2ccccc2)NC(=O)[C@@H](NC(=O)[C@H](N)Cc2ccccc2)CSSC[C@@H](C(=O)N[C@H](CO)[C@@H](C)O)NC1=O [octreotide] | – | diverse response
